Test results published in the NIST ThermoML archive (doi:10.1021/je060271a).
Where “and” joins values, the source holds several entries; their conditions need not be identical. Equal values may be shown once. Numbers after ± are expanded uncertainties.

Details: 303.16 K, Liquid, Vibrating tube method

SMILES: CCCCCC(=O)OCC(COC(=O)CCCCC)(COC(=O)CCCCC)COC(=O)CCCCC [pentaerythritol tetrahexanoate]
- mass density (10818 kPa): 995.1 ± 1.2 kg/m3
- mass density (10847 kPa): 995.1 ± 1.2 kg/m3
- mass density (10876 kPa): 995.3 ± 1.2 kg/m3
- mass density (10911 kPa): 995.2 ± 1.2 kg/m3
- mass density (10941 kPa): 995.3 ± 1.2 kg/m3
- mass density (10972 kPa): 995.3 ± 1.2 kg/m3
- mass density (11002 kPa): 995.2 ± 1.2 kg/m3
- mass density (11031 kPa): 995.3 ± 1.2 kg/m3
- mass density (11066 kPa): 995.3 ± 1.2 kg/m3
- mass density (11454 kPa): 995.6 ± 1.2 kg/m3
- mass density (11487 kPa): 995.6 ± 1.2 kg/m3
- mass density (11513 kPa): 995.6 ± 1.2 kg/m3
- mass density (11540 kPa): 995.6 ± 1.2 kg/m3
- mass density (11571 kPa): 995.7 ± 1.2 kg/m3
- mass density (11596 kPa): 995.6 ± 1.2 kg/m3
- mass density (11626 kPa): 995.6 ± 1.2 kg/m3
- mass density (11790 kPa): 995.8 ± 1.2 kg/m3
- mass density (11810 kPa): 995.6 ± 1.2 kg/m3
- mass density (11820 kPa): 995.9 ± 1.2 kg/m3
- mass density (11829 kPa): 995.8 ± 1.2 kg/m3
- mass density (11924 kPa): 995.8 ± 1.2 kg/m3
- mass density (11933 kPa): 995.7 ± 1.2 kg/m3
- mass density (11944 kPa): 995.8 ± 1.2 kg/m3
- mass density (11958 kPa): 995.9 ± 1.2 kg/m3
- mass density (11979 kPa): 995.9 ± 1.2 kg/m3
- mass density (11996 kPa): 996 ± 1.2 kg/m3
- mass density (12017 kPa): 996 ± 1.2 kg/m3
- mass density (12842 kPa): 996.5 ± 1.2 kg/m3
- mass density (12884 kPa): 996.5 ± 1.2 kg/m3
- mass density (13029 kPa): 996.6 ± 1.2 kg/m3
- mass density (13048 kPa): 996.5 ± 1.2 kg/m3
- mass density (13072 kPa): 996.5 ± 1.2 kg/m3
- mass density (13092 kPa): 996.6 ± 1.2 kg/m3
- mass density (13112 kPa): 996.6 ± 1.2 kg/m3
- mass density (13136 kPa): 996.7 ± 1.2 kg/m3
- mass density (13156 kPa): 996.5 ± 1.2 kg/m3
- mass density (13176 kPa): 996.6 ± 1.2 kg/m3
- mass density (13200 kPa): 996.7 ± 1.2 kg/m3
- mass density (13220 kPa): 996.6 ± 1.2 kg/m3
- mass density (13241 kPa): 996.7 ± 1.2 kg/m3
- mass density (13266 kPa): 996.7 ± 1.2 kg/m3
- mass density (13286 kPa): 996.7 ± 1.2 kg/m3
- mass density (14924 kPa): 997.7 ± 1.2 kg/m3
- mass density (14953 kPa): 997.6 ± 1.2 kg/m3
- mass density (14977 kPa): 997.7 ± 1.2 kg/m3
- mass density (15002 kPa): 997.7 ± 1.2 kg/m3
- mass density (15135 kPa): 997.8 ± 1.2 kg/m3
- mass density (15160 kPa): 997.8 ± 1.2 kg/m3
- mass density (15189 kPa): 997.8 ± 1.2 kg/m3
- mass density (15214 kPa): 997.8 ± 1.2 kg/m3
- mass density (15239 kPa): 997.8 ± 1.2 kg/m3
- mass density (15264 kPa): 997.9 ± 1.2 kg/m3
- mass density (15318 kPa): 997.9 ± 1.2 kg/m3
- mass density (15342 kPa): 997.9 ± 1.2 kg/m3
- mass density (15371 kPa): 997.9 ± 1.2 kg/m3
- mass density (15394 kPa): 997.9 ± 1.2 kg/m3
- mass density (15422 kPa): 997.9 ± 1.2 kg/m3
- mass density (15445 kPa): 998 ± 1.2 kg/m3
- mass density (15468 kPa): 998 ± 1.2 kg/m3
- mass density (15492 kPa): 998 ± 1.2 kg/m3
- mass density (15520 kPa): 998 ± 1.2 kg/m3
- mass density (15543 kPa): 998 ± 1.2 kg/m3
- mass density (15567 kPa): 997.9 ± 1.2 kg/m3
- mass density (15595 kPa): 998 ± 1.2 kg/m3
- mass density (15618 kPa): 998 ± 1.2 kg/m3
- mass density (15865 kPa): 998.4 ± 1.2 kg/m3
- mass density (16816 kPa): 998.8 ± 1.2 kg/m3
- mass density (17240 kPa): 999 ± 1.2 kg/m3
- mass density (17241 kPa): 999 ± 1.2 kg/m3
- mass density (17243 kPa): 999 ± 1.2 kg/m3
- mass density (17245 kPa): 999 ± 1.2 kg/m3
- mass density (17258 kPa): 999.1 ± 1.2 kg/m3
- mass density (17279 kPa): 999 ± 1.2 kg/m3
- mass density (17302 kPa): 999 ± 1.2 kg/m3
- mass density (17313 kPa): 999 ± 1.2 kg/m3
- mass density (17343 kPa): 999.1 ± 1.2 kg/m3
- mass density (17353 kPa): 999.1 ± 1.2 kg/m3 and 999 ± 1.2 kg/m3
- mass density (17354 kPa): 999.1 ± 1.2 kg/m3 and 999.2 ± 1.2 kg/m3
- mass density (17601 kPa): 999.3 ± 1.2 kg/m3
- mass density (17625 kPa): 999.2 ± 1.2 kg/m3
- mass density (17654 kPa): 999.2 ± 1.2 kg/m3
- mass density (17675 kPa): 999.2 ± 1.2 kg/m3
- mass density (17704 kPa): 999.3 ± 1.2 kg/m3
- mass density (17727 kPa): 999.3 ± 1.2 kg/m3
- mass density (17750 kPa): 999.5 ± 1.2 kg/m3
- mass density (17777 kPa): 999.3 ± 1.2 kg/m3
- mass density (17799 kPa): 999.3 ± 1.2 kg/m3
- mass density (17825 kPa): 999.3 ± 1.2 kg/m3
- mass density (17847 kPa): 999.3 ± 1.2 kg/m3
- mass density (17869 kPa): 999.3 ± 1.2 kg/m3
- mass density (17891 kPa): 999.4 ± 1.2 kg/m3
- mass density (18682 kPa): 999.8 ± 1.2 kg/m3
- mass density (18706 kPa): 999.9 ± 1.2 kg/m3
- mass density (18735 kPa): 999.9 ± 1.2 kg/m3
- mass density (18759 kPa): 999.9 ± 1.2 kg/m3
- mass density (18784 kPa): 999.9 ± 1.2 kg/m3
- mass density (18808 kPa): 1000 ± 1.2 kg/m3
- mass density (18838 kPa): 999.9 ± 1.2 kg/m3
- mass density (18862 kPa): 1000 ± 1.2 kg/m3
- mass density (18892 kPa): 1000 ± 1.2 kg/m3
- mass density (23429 kPa): 1002.6 ± 1.2 kg/m3
- mass density (23459 kPa): 1002.6 ± 1.2 kg/m3
- mass density (23495 kPa): 1002.6 ± 1.2 kg/m3
- mass density (23525 kPa): 1002.6 ± 1.2 kg/m3
- mass density (23561 kPa): 1002.7 ± 1.2 kg/m3
- mass density (23592 kPa): 1002.6 ± 1.2 kg/m3
- mass density (23622 kPa): 1002.8 ± 1.2 kg/m3
- mass density (23653 kPa): 1002.7 ± 1.2 kg/m3
- mass density (23690 kPa): 1002.8 ± 1.2 kg/m3
- mass density (23720 kPa): 1002.8 ± 1.2 kg/m3
- mass density (23757 kPa): 1002.7 ± 1.2 kg/m3
- mass density (23788 kPa): 1002.8 ± 1.2 kg/m3
- mass density (23820 kPa): 1002.9 ± 1.2 kg/m3
- mass density (23856 kPa): 1002.8 ± 1.2 kg/m3
- mass density (23888 kPa): 1002.8 ± 1.2 kg/m3
- mass density (23920 kPa): 1002.9 ± 1.2 kg/m3
- mass density (23958 kPa): 1002.9 ± 1.2 kg/m3
- mass density (23990 kPa): 1002.8 ± 1.2 kg/m3
- mass density (24022 kPa): 1002.9 ± 1.2 kg/m3
- mass density (24054 kPa): 1002.8 ± 1.2 kg/m3
- mass density (24093 kPa): 1003 ± 1.2 kg/m3
- mass density (24125 kPa): 1003 ± 1.2 kg/m3
- mass density (24164 kPa): 1003 ± 1.2 kg/m3
- mass density (24196 kPa): 1003.1 ± 1.2 kg/m3
- mass density (24226 kPa): 1003 ± 1.2 kg/m3
- mass density (24255 kPa): 1003.1 ± 1.2 kg/m3
- mass density (24419 kPa): 1003.2 ± 1.2 kg/m3
- mass density (24447 kPa): 1003.2 ± 1.2 kg/m3
- mass density (24481 kPa): 1003.2 ± 1.2 kg/m3
- mass density (24509 kPa): 1003.2 ± 1.2 kg/m3
- mass density (24537 kPa): 1003.1 ± 1.2 kg/m3
- mass density (24571 kPa): 1003.3 ± 1.2 kg/m3
- mass density (24599 kPa): 1003.3 ± 1.2 kg/m3
- mass density (24628 kPa): 1003.3 ± 1.2 kg/m3
- mass density (24656 kPa): 1003.4 ± 1.2 kg/m3
- mass density (24691 kPa): 1003.3 ± 1.2 kg/m3
- mass density (24720 kPa): 1003.3 ± 1.2 kg/m3
- mass density (24749 kPa): 1003.3 ± 1.2 kg/m3
- mass density (24778 kPa): 1003.3 ± 1.2 kg/m3
- mass density (24812 kPa): 1003.4 ± 1.2 kg/m3
- mass density (24935 kPa): 1003.4 ± 1.2 kg/m3
- mass density (25029 kPa): 1003.4 ± 1.2 kg/m3
- mass density (25058 kPa): 1003.4 ± 1.2 kg/m3
- mass density (25094 kPa): 1003.6 ± 1.2 kg/m3
